Earlier results on one molecule are cited in patent US10398673B2, “Mast cell stabilizers treatment for systemic disorders” (Respivant Sciences GmbH, priority 2014, dated 2019).

As for `O=C(O)c1cc(=O)c2c(OCC(O)COc3cccc4oc(C(=O)O)cc(=O)c34)cccc2o1` [cromolyn sodium], the oral bioavailability result is listed as “less than 1%”.
